Experimental data as given in paper PMC9137512 (Antibiotics, 2022).

Assay: Free concentration and protein binding in spiked human serum samples (Table S5)
Details: for fraction unbound: human, serum, PB
Method: Subsequently, samples were mixed for 10 s, stored in an ultrasonic bath for 10 min at 40 °C, then centrifuged at 8000× g for 5 min. Next, 100 µL of the resulting supernatant was further diluted with 500 µL water with 0.1% formic acid. […] Details are described in the Supplementary Materials (Figures S1–S3).
Table S5. […] In order to evaluate the
(a) Spiked human serum samples of 14 patients (8 critically ill and 6 non-critically ill) after calibration with sheep serum.
(b) Spiked human serum samples of 9 critically ill patients and 6 healthy volunteers after calibration with human serum.

[1] = S5b, serum of 28 (healthy volunteer) spiked 50 mg/L, measured c 49.1 mg/L, calibration with human serum
[2] = S5b, serum of 28 (healthy volunteer) spiked 200 mg/L, measured c 199 mg/L, calibration with human serum
[3] = S5b, serum of 29 (healthy volunteer) spiked 50 mg/L, measured c 52.0 mg/L, calibration with human serum
[4] = S5b, serum of 29 (healthy volunteer) spiked 200 mg/L, measured c 207 mg/L, calibration with human serum
[5] = S5b, serum of patient 16 (critically ill) spiked 50 mg/L, measured c 56.7 mg/L, calibration with human serum
[6] = S5b, serum of patient 17 (critically ill) spiked 200 mg/L, measured c 222 mg/L, calibration with human serum
[7] = S5b, serum of patient 18 (critically ill) spiked 50 mg/L, measured c 57.6 mg/L, calibration with human serum
[8] = S5b, serum of patient 18 (critically ill) spiked 200 mg/L, measured c 242 mg/L, calibration with human serum
[9] = S5b, serum of patient 19 (critically ill) spiked 50 mg/L, measured c 51.1 mg/L, calibration with human serum
[10] = S5b, serum of patient 19 (critically ill) spiked 200 mg/L, measured c 197 mg/L, calibration with human serum
[11] = S5b, serum of patient 20 (critically ill) spiked 50 mg/L, measured c 54.5 mg/L, calibration with human serum
[12] = S5b, serum of patient 20 (critically ill) spiked 200 mg/L, measured c 254 mg/L, calibration with human serum
[13] = S5b, serum of patient 21 (critically ill) spiked 50 mg/L, measured c 55.2 mg/L, calibration with human serum
[14] = S5b, serum of patient 23 (critically ill) spiked 50 mg/L, measured c 56.0 mg/L, calibration with human serum

Structure (SMILES): CN[C@H]1C(=O)N[C@@H]2Cc3ccc(cc3)Oc3cc4cc(c3O[C@@H]3O[C@H](C(=O)O)[C@@H](O)[C@H](O)[C@H]3NC(=O)CCCCCCCCC(C)C)Oc3ccc(cc3Cl)[C@@H](O)[C@@H]3NC(=O)[C@H](NC(=O)[C@@H]4NC(=O)[C@@H](NC2=O)c2cc(cc(O)c2Cl)Oc2cc1ccc2O)c1ccc(O)c(c1)-c1c(O[C@H]2O[C@H](CO)[C@@H](O)[C@H](O)[C@@H]2O)cc(O)cc1[C@@H](C(=O)NCCCN(C)C)NC3=O [dalbavancin, Dalbavancin]
- fc (S5b, serum of 27 (healthy volunteer) spiked 200 mg/L, measured c 220 mg/L, calibration with human serum): 5.1 mg/L
- PB [1]: 97%
- fc [1]: 1.6 mg/L
- PB [2]: 98%
- fc [2]: 4.8 mg/L
- PB [3]: 97%
- fc [3]: 1.4 mg/L
- PB [4]: 98%
- fc [4]: 4.6 mg/L
- fc (S5b, serum of patient 15 (critically ill) spiked 50 mg/L, measured c 56.7 mg/L, Nanosep SPE, HPLC-UV, calibration with human serum): 1.9 mg/L
- fc (S5b, serum of patient 15 (critically ill) spiked 200 mg/L, measured c 239 mg/L, calibration with human serum): 9.8 mg/L
- fc [5]: 1.8 mg/L
- fc (S5b, serum of patient 16 (critically ill) spiked 200 mg/L, measured c 233 mg/L, calibration with human serum): 12.1 mg/L
- fc (S5b, serum of patient 17 (critically ill) spiked 50 mg/L, measured c 52.5 mg/L, calibration with human serum): < 1.0 mg/L
- fc [6]: 8.3 mg/L
- fc [7]: 1.3 mg/L
- fc [8]: 8.8 mg/L
- fc [9]: 1.2 mg/L
- fc [10]: 7.1 mg/L
- fc [11]: 1.7 mg/L
- fc [12]: 8.2 mg/L
- fc [13]: 1.6 mg/L
- fc (S5b, serum of patient 21 (critically ill) spiked 200 mg/L, measured c 230 mg/L, calibration with human serum): 11.0 mg/L
- fc (S5b, serum of patient 22 (critically ill) spiked 50 mg/L, measured c 59.8 mg/L, calibration with human serum): 2.5 mg/L
- fc (S5b, serum of patient 22 (critically ill) spiked 200 mg/L, measured c 266 mg/L, calibration with human serum): 16.5 mg/L
- fc [14]: 2.2 mg/L
- fc (S5b, serum of patient 23 (critically ill) spiked 200 mg/L, measured c 233 mg/L, calibration with human serum): 9.6 mg/L
- fraction unbound: 0.05
- fraction unbound (S5a, serum of patient 1 (critically ill) spiked 50 mg/L, measured c 53.5 mg/L, calibration with sheep serum): 0.03
- fraction unbound (S5a, serum of patient 1 (critically ill) spiked 200 mg/L, measured c 201 mg/L, calibration with sheep serum): 0.04
- fraction unbound (S5a, serum of patient 2 (critically ill) spiked 50 mg/L, measured c 53.6 mg/L, calibration with sheep serum): 0.03
- fraction unbound (S5a, serum of patient 3 (critically ill) spiked 200 mg/L, measured c 209 mg/L, calibration with sheep serum): 0.04
- fraction unbound (S5a, serum of patient 4 (critically ill) spiked 50 mg/L, measured c 54.2 mg/L, calibration with sheep serum): 0.03
- fraction unbound (S5a, serum of patient 4 (critically ill) spiked 200 mg/L, measured c 212 mg/L, calibration with sheep serum): 0.04
- fraction unbound (S5a, serum of patient 5 (critically ill) spiked 50 mg/L, measured c 53.0 mg/L, calibration with sheep serum): 0.04
- fraction unbound (S5a, serum of patient 6 (critically ill) spiked 50 mg/L, measured c 50.4 mg/L, calibration with sheep serum): 0.03
- fraction unbound (S5a, serum of patient 8 (critically ill) spiked 50 mg/L, measured c 54.3 mg/L, calibration with sheep serum): 0.03
- fraction unbound (S5a, serum of patient 8 (critically ill) spiked 200 mg/L, measured c 201 mg/L, calibration with sheep serum): 0.04
- fraction unbound (S5a, serum of patient 9 (non-critically ill) spiked 200 mg/L, measured c 177 mg/L, calibration with sheep serum): 0.02
- fraction unbound (S5a, serum of patient 10 (non-critically ill) spiked 200 mg/L, measured c 180 mg/L, calibration with sheep serum): 0.02
- fraction unbound (S5a, serum of patient 11 (non-critically ill) spiked 200 mg/L, measured c 177 mg/L, calibration with sheep serum): 0.02
- fraction unbound (S5a, serum of patient 12 (non-critically ill) spiked 200 mg/L, measured c 195 mg/L, calibration with sheep serum): 0.02
- fraction unbound (S5a, serum of patient 13 (non-critically ill) spiked 50 mg/L, measured c 53.0 mg/L, calibration with sheep serum): 0.02
- fraction unbound (S5a, serum of patient 13 (non-critically ill) spiked 200 mg/L, measured c 214 mg/L, calibration with sheep serum): 0.03
- fraction unbound (S5a, serum of patient 14 (non-critically ill) spiked 50 mg/L, measured c 50.0 mg/L, calibration with sheep serum): 0.02
- fraction unbound (S5a, serum of patient 14 (non-critically ill) spiked 200 mg/L, measured c 208 mg/L, calibration with sheep serum): 0.02
- fraction unbound (S5b, serum of 24 (healthy volunteer) spiked 50 mg/L, measured c 46.1 mg/L, calibration with human serum): 0.03
- fraction unbound (S5b, serum of 24 (healthy volunteer) spiked 200 mg/L, measured c 184 mg/L, calibration with human serum): 0.02
- fraction unbound (S5b, serum of 25 (healthy volunteer) spiked 50 mg/L, measured c 45.8 mg/L, calibration with human serum): 0.03
- fraction unbound (S5b, serum of 25 (healthy volunteer) spiked 200 mg/L, measured c 197 mg/L, calibration with human serum): 0.03
- fraction unbound (S5b, serum of 26 (healthy volunteer) spiked 50 mg/L, measured c 52.6 mg/L, calibration with human serum): 0.03
- fraction unbound (S5b, serum of patient 15 (critically ill) spiked 50 mg/L, measured c 56.7 mg/L, calibration with human serum): 0.03
- fraction unbound [5]: 0.04
- fraction unbound [6]: 0.04
- fraction unbound [7]: 0.03
- fraction unbound [8]: 0.04
- fraction unbound [9]: 0.02
- fraction unbound [10]: 0.04
- fraction unbound [11]: 0.03
- fraction unbound [12]: 0.04
- fraction unbound [13]: 0.03
- fraction unbound [14]: 0.04
